Measurements published in ChEMBL document CHEMBL5154749 (Eur J Med Chem, 2022).
Active and inactive are the calls of the source. No cut-off for these calls is given here.

Columns and labels:
HT-29 [1] = assay: Induction of apoptosis in human HT-29 cells assessed as late apoptotic cells at 3 uM measured after 48 hrs by Annexin V-FITC/Propidium iodide staining based flow cytometry analysis (reference value: 0.71%); format: functional
LoVo [2] = assay: In vivo induction of DNA damage in human LoVo cells xenografted in NOD/SCID mouse assessed as increase in gamma H2AX level administered orally twice a day for 30 days by immuno histochemical analysis; format: functional, organism-based; settings: dose 50-100 mg/kg, route po, time 30.0 day, DDE = dose-dependent effect
[3] = Toxicity in NOD/SCID mouse xenografted with human LoVo cells assessed as damage in kidney at 50 to 100 mg/kg, po administered bid for 30 days measured after 2 hrs post last dose by H and E staining method; format: organism-based; settings: in vivo, 720 h, dose 50-100 mg/kg, time 30 day
LoVo [4] = assay: Induction of apoptosis in human LoVo cells deficient in ATM assessed as necrotic cells at 3 uM measured after 24 hrs by Annexin V-FITC/Propidium iodide staining based flow cytometry analysis (reference value: 0.84%); format: functional
HT-29 [5] = assay: Induction of apoptosis in human HT-29 cells assessed as early apoptotic cells at 3 uM measured after 48 hrs by Annexin V-FITC/Propidium iodide staining based flow cytometry analysis (reference value: 1.55%); format: functional
LoVo [6] = assay: Induction of apoptosis in human LoVo cells deficient in ATM assessed as early apoptotic cells at 1 uM measured after 24 hrs by Annexin V-FITC/Propidium iodide staining based flow cytometry analysis (reference value: 4.20%); format: functional
[7] = target: Serine/threonine-protein kinase B-raf (Homo sapiens, UniProt P15056); assay: Inhibition of human recombinant B-raf (416 to end residue) using myelin-Bas as substrate incubated for 40 mins in presence of ATP by scintillation counting method
LoVo [8] = assay: Induction of DNA damage in human LoVo cells deficient in ATM at 1 uM measured after 3 days by immunofluorescence assay; format: functional, cell-based; settings: time 3.0 day
SW-620 = assay: Antiproliferative activity against ATM-deficient human SW-620 cells assessed as reduction in cell viability incubated for 72 hrs by MTT assay; format: functional, cell-based; settings: dose 0.001-100 µM, DDE = dose-dependent effect
MCF7 = assay: Antiproliferative activity against ATM proficient human MCF7 cells assessed as reduction in cell viability incubated for 72 hrs by MTT assay; format: functional, cell-based; settings: dose 0.001-100 µM, DDE = dose-dependent effect
OVCAR-3 = assay: Antiproliferative activity against ATM-deficient human OVCAR-3 cells assessed as reduction in cell viability incubated for 72 hrs by MTT assay; format: functional, cell-based; settings: dose 0.001-100 µM, DDE = dose-dependent effect
HT-29 [9] = assay: Induction of apoptosis in human HT-29 cells assessed as viable cells at 1 uM measured after 48 hrs in presence of AZD1390 by Annexin V-FITC/Propidium iodide staining based flow cytometry analysis (reference value: 95.33%); format: functional; settings: read-out: Activity
HT-29 [10] = assay: Induction of apoptosis in human HT-29 cells assessed as early apoptotic cells at 1 uM measured after 48 hrs by Annexin V-FITC/Propidium iodide staining based flow cytometry analysis (reference value: 1.55%); format: functional
LoVo [11] = assay: Inhibition of colony formation in human LoVo cells assessed as inhibition of cell proliferation incubated for 24 hrs followed by culture medium replenishment with drug-free medium for every 72 hrs and measured after 14 days by crystal violet staining method; format: functional, cell-based; settings: dose 0.03-3 µM, DDE = dose-dependent effect
HT-29 [12] = assay: Induction of apoptosis in human HT-29 cells assessed as necrotic cells at 3 uM measured after 48 hrs by Annexin V-FITC/Propidium iodide staining based flow cytometry analysis (reference value: 0.73%); format: functional
[13] = target: Serine/threonine-protein kinase ATR (Homo sapiens, UniProt Q13535); assay: Inhibition of human recombinant full length ATR using GST-cMyc-p53 as substrate incubated for 40 mins in presence of ATP by HTRF assay
LoVo [14] = assay: Induction of apoptosis in human LoVo cells deficient in ATM assessed as early apoptotic cells at 0.3 uM measured after 24 hrs by Annexin V-FITC/Propidium iodide staining based flow cytometric analysis (reference value: 4.20%); format: functional
LoVo [15] = assay: Antitumor activity against human LoVo cells xenografted in NOD/SCID mouse assessed as tumor growth inhibition at 50 mg/kg, po BID for 30 days measured every 2 to 3 days; format: functional; settings: 720 h, time 30 day, read-out: TGI
HT-29 [16] = assay: Induction of apoptosis in human HT-29 cells assessed as late apoptotic cells at 0.3 uM measured after 48 hrs in presence of AZD1390 by Annexin V-FITC/Propidium iodide staining based flow cytometry analysis (reference value: 0.63%); format: functional
[17] = Volume of distribution at steady state in Sprague-Dawley rat at 5 mg/kg, iv measured at 0.083 to 24 hrs by LC-MS/MS method; format: ADME, organism-based; settings: in vivo, time 0.083-24 hrs, read-out: Vdss
HT-29 [18] = assay: Induction of apoptosis in human HT-29 cells assessed as necrotic cells at 0.3 uM measured after 48 hrs by Annexin V-FITC/Propidium iodide staining based flow cytometry analysis (reference value: 0.73%); format: functional
LoVo [19] = assay: Induction of apoptosis in human LoVo cells deficient in ATM assessed as late apoptotic cells at 0.3 uM measured after 24 hrs by Annexin V-FITC/Propidium iodide staining based flow cytometry analysis (reference value: 3.32%); format: functional
HT-29 [20] = assay: Induction of apoptosis in human HT-29 cells assessed as early apoptotic cells at 3 uM measured after 48 hrs in presence of AZD1390 by Annexin V-FITC/Propidium iodide staining based flow cytometry analysis (reference value: 3.81%); format: functional
HT-29 [21] = assay: Induction of DNA damage in human HT-29 cells proficient in ATM at 1 uM measured after 3 days in presence of AZD1390 by immunofluorescence assay; format: functional, cell-based; settings: time 3.0 day
LoVo [22] = assay: Antitumor activity against human LoVo cells xenografted in NOD/SCID mouse assessed as tumor growth inhibition at 100 mg/kg, po BID for 30 days measured every 2 to 3 days; format: functional; settings: 720 h, time 30 day, read-out: TGI
HT-29 [23] = assay: Induction of apoptosis in human HT-29 cells assessed as necrotic cells at 0.3 uM measured after 48 hrs in presence of AZD1390 by Annexin V-FITC/Propidium iodide staining based flow cytometry analysis (reference value: 0.23%); format: functional
[24] = Clearance in Sprague-Dawley in rat at 5 mg/kg, iv measured at 0.083 to 24 hrs by LC-MS/MS method; format: ADME, organism-based; settings: in vivo, time 0.083-24 hrs
LoVo [25] = assay: Induction of apoptosis in human LoVo cells deficient in ATM assessed as viable cells at 1 uM measured after 24 hrs by Annexin V-FITC/Propidium iodide staining based flow cytometry analysis (reference value: 91.64%); format: functional; settings: read-out: Activity
[26] = Toxicity in NOD/SCID mouse xenografted with human LoVo cells assessed as damage in lung at 50 to 100 mg/kg, po administered bid for 30 days measured after 2 hrs post last dose by H and E staining method; format: organism-based; settings: in vivo, 720 h, dose 50-100 mg/kg, time 30 day
HT-29 [27] = assay: Induction of apoptosis in human HT-29 cells assessed as early apoptotic cells at 0.3 uM measured after 48 hrs by Annexin V-FITC/Propidium iodide staining based flow cytometry analysis (reference value: 1.55%); format: functional
HT-29 [28] = assay: Cytotoxicity against ATM proficient human HT-29 cells assessed as reduction in cell viability incubated for 72 hrs by MTT assay; format: functional, cell-based; settings: dose 0.001-100 µM, DDE = dose-dependent effect

Sequence of Serine/threonine-protein kinase ATR (Q13535 whole entry): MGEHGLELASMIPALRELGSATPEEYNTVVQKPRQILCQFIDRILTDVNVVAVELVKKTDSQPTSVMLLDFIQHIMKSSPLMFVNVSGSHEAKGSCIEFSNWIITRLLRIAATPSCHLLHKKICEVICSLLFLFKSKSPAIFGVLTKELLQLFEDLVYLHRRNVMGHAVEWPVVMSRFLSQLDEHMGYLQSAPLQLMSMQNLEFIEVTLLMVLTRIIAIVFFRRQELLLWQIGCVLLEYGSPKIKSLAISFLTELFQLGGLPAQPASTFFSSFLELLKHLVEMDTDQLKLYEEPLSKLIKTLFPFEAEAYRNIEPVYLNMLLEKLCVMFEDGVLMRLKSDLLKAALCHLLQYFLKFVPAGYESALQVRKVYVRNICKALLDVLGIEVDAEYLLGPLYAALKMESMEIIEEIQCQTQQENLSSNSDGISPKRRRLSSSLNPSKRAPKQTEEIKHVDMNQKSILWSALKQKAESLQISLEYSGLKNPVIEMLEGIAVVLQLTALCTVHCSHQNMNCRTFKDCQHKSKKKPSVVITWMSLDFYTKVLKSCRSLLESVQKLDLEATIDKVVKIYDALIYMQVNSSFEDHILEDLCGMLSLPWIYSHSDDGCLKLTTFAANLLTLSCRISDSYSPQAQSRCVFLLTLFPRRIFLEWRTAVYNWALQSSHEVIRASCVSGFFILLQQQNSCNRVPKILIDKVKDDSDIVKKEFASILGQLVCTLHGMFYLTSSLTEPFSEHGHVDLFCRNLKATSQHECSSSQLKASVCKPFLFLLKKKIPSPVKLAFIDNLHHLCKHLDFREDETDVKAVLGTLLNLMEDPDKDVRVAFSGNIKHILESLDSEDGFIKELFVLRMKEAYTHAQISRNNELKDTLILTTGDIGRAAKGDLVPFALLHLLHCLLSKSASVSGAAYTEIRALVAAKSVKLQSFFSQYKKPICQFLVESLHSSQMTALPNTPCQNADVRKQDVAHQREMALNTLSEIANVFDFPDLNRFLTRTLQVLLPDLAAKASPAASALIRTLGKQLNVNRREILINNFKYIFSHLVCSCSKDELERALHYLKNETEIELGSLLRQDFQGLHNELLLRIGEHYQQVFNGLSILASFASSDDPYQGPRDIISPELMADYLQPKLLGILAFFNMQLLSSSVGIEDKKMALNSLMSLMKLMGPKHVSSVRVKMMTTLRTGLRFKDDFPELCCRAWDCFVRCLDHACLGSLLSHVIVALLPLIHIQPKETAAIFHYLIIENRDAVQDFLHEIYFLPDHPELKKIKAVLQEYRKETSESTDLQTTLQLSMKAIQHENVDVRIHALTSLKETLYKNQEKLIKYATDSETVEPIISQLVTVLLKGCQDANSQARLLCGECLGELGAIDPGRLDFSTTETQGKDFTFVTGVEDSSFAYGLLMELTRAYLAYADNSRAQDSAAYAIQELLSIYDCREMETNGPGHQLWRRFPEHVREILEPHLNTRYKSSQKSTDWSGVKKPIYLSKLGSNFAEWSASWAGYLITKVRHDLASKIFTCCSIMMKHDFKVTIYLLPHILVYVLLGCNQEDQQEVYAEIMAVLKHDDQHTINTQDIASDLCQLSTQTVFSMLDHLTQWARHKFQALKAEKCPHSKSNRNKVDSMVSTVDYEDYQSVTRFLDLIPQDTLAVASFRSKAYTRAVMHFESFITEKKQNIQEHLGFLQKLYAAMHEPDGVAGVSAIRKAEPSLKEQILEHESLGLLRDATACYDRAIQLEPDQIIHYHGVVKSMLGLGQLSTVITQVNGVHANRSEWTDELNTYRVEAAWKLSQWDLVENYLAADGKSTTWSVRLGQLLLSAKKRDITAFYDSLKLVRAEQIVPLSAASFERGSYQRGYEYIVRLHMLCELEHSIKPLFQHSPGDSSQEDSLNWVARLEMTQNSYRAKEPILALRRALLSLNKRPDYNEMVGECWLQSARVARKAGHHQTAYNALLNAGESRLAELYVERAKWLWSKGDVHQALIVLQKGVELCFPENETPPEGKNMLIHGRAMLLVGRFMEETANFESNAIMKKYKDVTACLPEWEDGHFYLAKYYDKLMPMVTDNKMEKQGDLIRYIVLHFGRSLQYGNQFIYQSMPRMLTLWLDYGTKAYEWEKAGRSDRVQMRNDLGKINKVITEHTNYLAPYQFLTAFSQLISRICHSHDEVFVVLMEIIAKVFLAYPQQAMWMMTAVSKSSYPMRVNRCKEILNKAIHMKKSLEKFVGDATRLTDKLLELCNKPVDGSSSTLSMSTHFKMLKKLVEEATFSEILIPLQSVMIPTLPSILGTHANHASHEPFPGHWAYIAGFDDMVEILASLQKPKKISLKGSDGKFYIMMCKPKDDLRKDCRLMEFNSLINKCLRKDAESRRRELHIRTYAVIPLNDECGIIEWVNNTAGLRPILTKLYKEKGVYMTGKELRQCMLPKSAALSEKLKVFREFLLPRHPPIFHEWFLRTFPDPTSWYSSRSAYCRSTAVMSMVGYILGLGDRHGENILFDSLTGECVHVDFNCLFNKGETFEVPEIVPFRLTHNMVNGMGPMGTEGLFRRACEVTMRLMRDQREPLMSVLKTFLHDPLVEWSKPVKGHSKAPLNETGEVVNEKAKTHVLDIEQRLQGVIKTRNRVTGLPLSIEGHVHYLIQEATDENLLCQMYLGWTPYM
Sequence of Serine/threonine-protein kinase B-raf (P15056 whole entry): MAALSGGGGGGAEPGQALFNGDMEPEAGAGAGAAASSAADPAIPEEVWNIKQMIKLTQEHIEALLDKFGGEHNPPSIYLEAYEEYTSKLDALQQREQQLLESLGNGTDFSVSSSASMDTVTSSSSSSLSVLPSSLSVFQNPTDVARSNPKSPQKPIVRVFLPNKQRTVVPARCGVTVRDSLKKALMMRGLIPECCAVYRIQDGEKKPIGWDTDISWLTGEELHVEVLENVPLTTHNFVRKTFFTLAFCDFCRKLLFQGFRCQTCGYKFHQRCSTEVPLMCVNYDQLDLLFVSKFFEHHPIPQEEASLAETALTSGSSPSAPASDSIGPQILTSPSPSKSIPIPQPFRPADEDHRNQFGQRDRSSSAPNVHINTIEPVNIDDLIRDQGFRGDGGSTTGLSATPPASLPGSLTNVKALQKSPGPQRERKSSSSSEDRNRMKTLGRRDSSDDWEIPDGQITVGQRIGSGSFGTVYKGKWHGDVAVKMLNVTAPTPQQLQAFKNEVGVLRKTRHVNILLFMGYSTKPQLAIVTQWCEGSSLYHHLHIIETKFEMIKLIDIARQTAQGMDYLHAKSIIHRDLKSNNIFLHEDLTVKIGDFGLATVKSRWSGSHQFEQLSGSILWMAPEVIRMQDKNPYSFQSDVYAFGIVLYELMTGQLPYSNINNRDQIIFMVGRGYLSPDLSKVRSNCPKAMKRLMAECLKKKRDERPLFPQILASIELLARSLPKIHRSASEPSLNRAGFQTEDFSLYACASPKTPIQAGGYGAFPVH

C[C@@H]1COCCN1c1nc(-c2cccc3[nH]ccc23)nc2ccc(-c3ccnn3C)cc12
Activity (HT-29 [1]): 2.52% | Activity (LoVo [2]): Dde | Activity [3]: Non-Toxic | Activity (LoVo [4]): 3.01% | Activity (HT-29 [5]): 2.64% | Activity (LoVo [6]): 28.91% | IC50 [7]: 1770 nM | Activity (LoVo [8]): Active | Activity (SW-620): Dde | Activity (MCF7): Dde | Activity (OVCAR-3): Dde | viability at 1 µM (HT-29 [9]): 80.9% | Activity (HT-29 [10]): 2.32% | inhibition (LoVo [11]): Dde | Activity (HT-29 [12]): 1.71% | IC50 [13]: 13 nM | Activity (LoVo [14]): 24.04% | inhibition in vivo at 50 mg/kg (LoVo [15]): 50% | Activity (HT-29 [16]): 9.85% | Vd [17]: 2.03 L/kg | Activity (HT-29 [18]): 1.65% | Activity (LoVo [19]): 17.38% | Activity (HT-29 [20]): 15.88% | Activity (HT-29 [21]): Active | inhibition in vivo at 100 mg/kg (LoVo [22]): 72.8% | Activity (HT-29 [23]): 3.91% | clearance [24]: 26.5 mL/min/kg | viability at 1 µM (LoVo [25]): 47.8% | Activity [26]: Non-Toxic | Activity (HT-29 [27]): 1.47% | Activity (HT-29 [28]): Dde
